{"source": "paper PMC6488038", "about": "(Journal of the American Chemical Society, 2018)", "test_system": "HCT116 cells", "experiment": "Cell viability, Alamar Blue assay, HCT116", "assay_type": "cell-based, human", "conditions": "72 h", "data": [{"compound": "N#Cc1c2c(cc3c1C(=O)N[C@@H]1C3=C[C@H](O)[C@@H](O)[C@H]1O)OCO2", "note": "[compound 46, 7cyanolycoricidine]", "values": [{"measurement": "activity compared to lycoricidine (3)", "value": "increased activity"}]}]}
